Laboratory results as given in article PMC4660440 (Scientific Reports, 2015).

What was measured:
HeLa = assay: MTT cytotoxicity assay, HeLa; assay type: cell-based; conditions: drug exposure 48 h, mean ± SD (n = 3), read-out: Cytotoxic activity (IC50) HeLa
Method: (§1) HeLa, BGC823, A-549, MCF-7 and HT-7702 cell lines were obtained from the ATCC. […] Tumor cells (3500–13,000) were seeded into 96-well microtest plates in 100 μL of culture medium per well, incubated for 48 h in the presence or absence of test compounds (8 different concentrations ranging from 100 to 0.01 μg/mL). For quantitative estimation of cytotoxicity, the (MTT) method was used, essentially performed as described previously. Briefly, cells were washed twice with PBS, fixed for 15 min in 1% glutaraldehyde solution, rinsed twice in PBS, and stained in 0.5% MTT solution for 4 h at 37 °C. […] The initial seeding densities varied among the cell lines to ensure a final absorbance reading in control (untreated) cultures within the range of 0.6–0.8 A492 units. Drug exposure was carried out for 2 days, and the IC50 value, i.e., the drug concentration that decreased the absorbance by 50%, was extrapolated from dose-response data. Each test was performed in triplicate, and the absorbance readings between the triplicates varied by no more than 10%.

BGC-823 = assay: MTT cytotoxicity assay, BGC-823; assay type: cell-based; conditions: drug exposure 48 h, mean ± SD (n = 3), read-out: Cytotoxic activity (IC50) BGC-823
Method: as §1

A549 = assay: MTT cytotoxicity assay, A549; assay type: cell-based; conditions: drug exposure 48 h, mean ± SD (n = 3), read-out: Cytotoxic activity (IC50) A549
Method: as §1

MCF-7 = assay: MTT cytotoxicity assay, MCF-7; assay type: cell-based; conditions: drug exposure 48 h, mean ± SD (n = 3), read-out: Cytotoxic activity (IC50) MCF-7
Method: as §1

HL-7702 = assay: MTT cytotoxicity assay, normal hepatic cell line HL-7702; assay type: cell-based; conditions: human normal hepatic immortal cell line, drug exposure 48 h, mean ± SD (n = 3), read-out: Cytotoxic activity (IC50) HL-7702
Method: as §1

HeLa cells [1] = assay: Cell cycle analysis by flow cytometry (PI); assay type: cell-based
Method: The HeLa cell line was used for cell cycle analysis. Progression through the cell cycle was assessed by flow cytometry DNA determination with Propidium Iodide (PI). […] Flow cytometric analysis was performed using a BD accur C6 flow cytometer. Analysis was with Mod FIT software.

[2] = tested on: microtubules in HeLa cells; assay: Immunofluorescence of cellular microtubules; assay type: cell-based
Method: Cells (20000 per mL) were plated a onto 6-well tissue culture plates containing 12 mm round coverslips, cultured overnight, and then treated with different drugs at […] concentrations or drug vehicle (0.1% DMSO) for 12 h and 24 h. Attached cells were permeabilized. Cytoskeletons were incubated with α-tubulin, washed twice, and incubated with FITC goat anti-mouse immunoglobulins. The coverslips were washed, and 1 μg/mL DAPI to stain chromatin was added. The mixture was incubated for 30 min. After the samples were washed, they were examined and photographed using an Olympus epifluorescence microscope. The images were recorded with a Perkin Elmer camera.

tubulin = assay: Tubulin assembly centrifugation assay in vitro; assay type: biochemical
Method: Ligands were dissolved in DMSO at 20 mM and kept at −80 °C. Work solutions were done in DMSO and kept at −20 °C. The 50% inhibitory ligand concentration of tubulin assembly was determined with a centrifugation assay. Tubulin was equilibrated prior to use in 3.4 M glycerol, 1 mM EGTA, 0.1 mM GTP, pH 7.0, buffer through a 25 cm × 0.9 cm Sephadex G-25 column. Aggregates were removed by a centrifugation at 90000 g × 10 min in a TLA 120 rotor at 4 °C in an Optima TLX centrifuge. Tubulin concentration was determined as described by Andreu^42. Tubulin was kept at 4 °C, and 0.9 mM GTP and 6 mM MgCl2 were added to the sample. The solution was distributed in 200 μL polycarbonate tubes for the TL100 rotor. Growing concentrations of the ligands ranging from 0 to 25 μM were added to the samples (DMSO content of the samples, 2.5%), which were incubated for 30 min at 37 °C. Microtubules were separated from unassembled tubulin by a centrifugation at 90000 g × 10 min in a TLA100 rotor at 37 °C in an Optima TLX centrifuge. The supernatant containing unassembled tubulin was carefully collected and the microtubule pellet resuspended in 10 mM sodium phosphate buffer, pH 7.0, containing 1% SDS. Both supernatants and pellets were diluted 1:5 in the same buffer, and tubulin concentrations were measured fluorometrically (λexc = 280; λems = 323) using tubulin standards calibrated spectrophotometrically. The 50% inhibitory ligand concentration of tubulin assembly was determined with a centrifugation assay that measured the decrease in the concentrations of microtubules assembled in the presence of different concentrations of the compound.

[3] = tested on: BimEL, ATR, caspase 3, caspase 8, caspase 9, PARP in HeLa cells; assay: Western blot analysis of apoptosis proteins; assay type: cell-based; conditions: 24 h treatment
Method: For electrophoresis, the proteins were separated by sodium dodecyl sulfate–polyacrylamide gel electro-phoresis (SDS–PAGE). The proteins were then transferred to a nitrocellulose membrane, which was blocked with 5% skimmed milk in phosphate buffered saline Tween-20 (PBST). A specific primary antibody was added to bind the target proteins for either 1 h at room temperature or overnight at 4 °C. A horseradish peroxidase (HRP) conjugated secondary antibody was added to the membrane after the primary antibody was washed off. All signals were detected after the HRP was activated by enhanced chemiluminescence. The band intensities of Western results were quantitated with the Image Quant program (Molecular Dynamics Inc.), analyzed and graphed. The untreated controls and the etoposideinduced activation of signaling molecules were taken as 0% and 100%, respectively. Statistic analysis was performed with the uni-polar, paired Student t-test. Data were considered significant when P value was less than 0.05.

HeLa cells [4] = assay: Annexin V-FITC/PI apoptosis assay; conditions: 0.1 μM, 6, 12, 24 and 48 h
Method: The HeLa cell line was used for cell apoptosis. Cells (20000 per mL) were incubated with several concentrations of the compounds or drugs for 6–48 h, and incubated in DMEM medium supplemented with 12% fetal calf serum (FCS), 2 mM L -glutamine, and 100 mg/L penicillin G and 100 mg/L streptomycin at 37 °C and 5% CO2. The cells were washed with PBS twice, centrifuged at 206 g for 5 min, and 5–10[5] cells were collected. Binding buffer suspension (500 μL) was added to the cells, and then 5 μL of the FITC-Annexin V mix was added. Next, 10 μL of the PI mix was added, and the suspension was mixed and kept at room temperature for 30 min in the dark. Analysis was with a BD accur C6 flow cytometer.

`COc1ccc(NC2c3cc4c(cc3C(c3cc(OC)c(OC)c(OC)c3)C3C(=O)OCC23)OCO4)cc1F` (stereo not drawn) [Compound 19, 4β-NH-(3-fluoro-4-methoxyaniline)-4-deoxy-podophyllotoxin] was tested, and the IC50 (HeLa) was 0.72 ± 0.08 µM, the IC50 (BGC-823) was 1.61 ± 0.11 µM and the IC50 (A549) was 1.76 ± 0.07 µM. For the same molecule, the IC50 (MCF-7) was 2.01 ± 0.21 µM, the IC50 (HL-7702) was 55.4 ± 0.64 µM and the “Effect on HeLa cell cycle” value (HeLa cells [1]; 0.1, 1.0, 5.0 μM, 6, 12, 24, 48 h) was “arrested at the G2/M phase”. The “Ratio of cell cycle arrest (of total cells)” value (HeLa cells [1]; HeLa, 0.1 μM, 6, 12, 24 and 48 h) was “less than 10%”, the “Percentage of cell cycle arrest (right peak of histogram)” value (HeLa cells [1]; HeLa, 5.0 μM, 12 h) was 83.0% and the “Total cell cycle arrest percentage (right peak of histogram)” value (HeLa cells [1]; HeLa, 5.0 μM, 48 h) was 96.2%. For the same molecule, the “Cellular depolymerization of microtubules” value ([2]; 12 and 24 h, compared with negative control 0.1% DMSO) was “able to cause cellular depolymerization of microtubules”, the “Appearance of microtubules after treatment” value ([2]; immunofluorescence) was “greatly disrupted and disappeared” and the GI50 (tubulin; centrifugation assay, ligand 0 to 25 μM, 30 min at 37 °C, read-out: GI50, inhibition of microtubule polymerization (tubulin assembly)) was under 1 µM. The “Inhibition of microtubule polymerization compared with colchicine” value (tubulin; colchicine as positive control) was “effects higher than colchicine”, the “BimEL level (pro-apoptotic protein)” value [3] was “significantly increased” and the “Ratio of apoptotic Hela cells (of total cells)” value (HeLa cells [4]) was “less than 15%”.
